From patent US20040234992A1, “Method of detection of conformational change in a nucleic acid duplex by treatment with oxidising or reactive agent as a result of exposure to environmental or chemical conditions” (priority 2001, published 2004)

What was measured:
duplex DNA = conditions: published data; cited from earlier work
calf thymus DNA (Z-DNA) = assay: Permanganate oxidation of calf thymus Z-DNA (NaCl) incubated with intercalators; conditions: for Level of oxidation (induced by chemical) Net A420 nm: Z-DNA (NaCl), Expt minus Control, 2 min-1 h; for Level of oxidation (induced by chemical) Net A420 nm / ΔA420 nm (2 min-1 h) (Expt): 35° C.; for ΔA420 nm (2 min-1 h) (Expt): calf thymus DNA + NaCl + intercalator 6.3 nmol + KMnO4
Experimental: The intercalator (10 μl, […]) was incubated with the solution containing calf thymus DNA (5 μl, 8.27 μg) and NaCl (600 μl, 5M NaCl solution) in water (355 μl) at 40° C. for 1 h. The reaction mixture was treated with KMnO4 (30μ of 10 mM solution) and maintained at 35° C. for 60 min. The absorbance at 420 nm was obtained at 2 min and 60 min by Cary 300 spectrophotometer (Varian Inc.). The level of oxidation was based on the absorbance at A420 nm of the experiment and control (without DNA) experiments as described in the experimental section. Four intercalators (with published data on unwinding degree) were used in the experiment: doxorubicin (10°), daunomycin (12°), 9-aminoacridine (17°) and ethidium bromide (28°); and
Due to limited information about the degree of unwinding of intercalators, only four intercalators with different degree of unwinding were employed in the experiment: doxorubicin (10°), daunorubicin (12°), 9-aminoacridine (17°) and ethidium bromide (28°). The Z-DNA samples were mixed in equal amounts of intercalators and the reactions were carried out under identical conditions. Calf thymus DNA (5 μl, 8.27 μg) was incubated with NaCl (600 μl, SM NaCl solution), the DNA binding agent or intercalator (10 μl, 6.3 nmol) in distilled H2O (355 μl). 4 non-sequence specific intercalators were used in the model study: doxorubicin, daunorubicin, 9-aminoacridine and ethidium bromide. The reaction mixture was gently mixed on shaker at 40° C. for 1 h. After incubation time, KMnO4 (30 μl) was added to the reaction mixture and the resulting mixture was transferred to the quartz cuvette and the absorbance (420 nm) was obtained at 35° C. for 2- and 60-min time-points. The level of oxidation induced by intercalator is based on the net absorbance and calculated as follows:
Net A420 nm=[A420 nm of the Expt (60 min)−A420 nm of the Expt (2 min)]−[A420 nm of the Control (60 min)−A420 nm of the Control (2 min)]
Where Net A420 nm represents the level of oxidation of the DNA-chemical adduct.
The Expt=calf thymus DNA+NaCl+DNA binding agent+KMnO4
The Control=DNA binding agent+KMnO4.
The control experiment (without DNA binding agent) was treated under identical conditions as described above.

Compound | degree of unwinding (duplex DNA) [°] | Level of oxidation (induced by chemical) Net A420 nm (calf thymus DNA (Z-DNA)) [arbitrary unit] | ΔA420 nm (2 min-1 h) (Expt) (calf thymus DNA (Z-DNA)) | rate of permanganate oxidation (kinetic data) (calf thymus DNA (Z-DNA); Z-DNA incubated with intercalator, ranking among the four intercalators)
Nc1c2ccccc2nc2ccccc12 [9-aminoacridine] | 17 | 0.0726 | 0.1327 | –
COc1cccc2c1C(=O)c1c(O)c3c(c(O)c1C2=O)C[C@@](O)(C(C)=O)C[C@@H]3O[C@H]1C[C@H](N)[C@H](O)[C@H](C)O1 [daunorubicin] | 12 | 0.0957 | 0.1670 | –
COc1cccc2c1C(=O)c1c(O)c3c(c(O)c1C2=O)C[C@@](O)(C(=O)CO)C[C@@H]3O[C@H]1C[C@H](N)[C@H](O)[C@H](C)O1 [doxorubicin] | 10 | 0.1029 | 0.1427 | fastest
